The results in this text go back to patent publication US12594279B2, “Composition for preventing or treating TNF-α-related disease, comprising hydroflumethiazide as active ingredient” (SK CHEMICALS CO., LTD., priority 2020, dated 2026).

Counter-ions that a name gives are not always drawn.

Series [1] concerns rheumatoid arthritis DBA-1J mouse model. The experiment in a line: Arthritis index in collagen-induced rheumatoid arthritis DBA-1J mouse model. The series is classed as in vivo. How it is done: (§1) DBA-1J mice were purchased from Central Lab. Animal Inc. Bovine Type II collagen (2 mg/mL) was emulsified in 4 mg/mL of Complete Freund's adjuvant at 1:1, and then injected subcutaneously to the DBA-1J mice at the base of the tail with 100 μL/head to induce arthritis first. Then, after 3 weeks, Bovine Type II collagen (2 mg/mL) was emulsified in Incomplete Freund's adjuvant at 1:1 and injected subcutaneously to the DBA-1J mice at the base of the tail with 100 μL/head to prepare rheumatoid arthritis animal models.
(§2) As a normal control group, 0.5% methyl cellulose (MC) was orally administered to healthy DBA-1J mice, and as a comparative control group, 0.5% MC was orally administered to the prepared rheumatoid arthritis mouse models, daily for 2 weeks. Methotrexate (MTX, 2 mg/kg/2 day), hydroxychloroquine (HCQ, 80 mg/kg/day), which are commercially available therapeutic agents for rheumatoid arthritis, and hydroflumethiazide (5 mg/kg/day or 20 mg/kg/day) were orally administered daily for 2 weeks to the prepared rheumatoid arthritis mouse models, respectively.
[…] Reference: 0, No edema or swelling: 1, Mild edema and redness confined to the joint: 2, Mild edema and redness from the joint to carpal bone and tarsal bone: 3, Moderate edema and redness from the joint to carpal bone and tarsal bone: 4, Overall edema and redness and joint stiffness: 5. In the arthritis index, the highest score was set to 16 points by summing up the four limb scores. In addition, the size of the lower extremity edema was measured using a micrometer on day 14 after each drug was administered in each of the control groups and experimental groups.

The test system is the same in series [2]. In words: Size of lower extremity edema  in rheumatoid arthritis DBA-1J mouse model. The series is classed as in vivo. More on the design: Size of lower extremity edema, Right Feet / Size of lower extremity edema, Left Feet: unit not given here. As to the method:
as §1, §2
Arthritis indices were measured on day 9 and 14 after the administration of each drug in each of the control groups and experimental groups on the basis of the following criteria. Reference: 0, No edema or swelling: 1, Mild edema and redness confined to the joint: 2, Mild edema and redness from the joint to carpal bone and tarsal bone: 3, Moderate edema and redness from the joint to carpal bone and tarsal bone: 4, Overall edema and redness and joint stiffness: 5. In the arthritis index, the highest score was set to 16 points by summing up the four limb scores. […]

The test system is the same in series [3]. The experiment in a line: Histopathological quantification of ankle regions (H&E, safranin-O) in rheumatoid arthritis DBA-1J mouse model. The series is classed as in vivo. As to the method:
as §1, §2
On day 14 of administration, the mice in each of the control groups and experimental groups were sacrificed, and then joint staining photographs were taken through the following process. The ankle areas of the sacrificed mice were subjected to general tissue treatment processes such as demineralization, trimming, dehydration, paraffin embedding, and microtome cutting to prepare specimens for histopathological examination. Then, Hematoxylin & Eosin (H&E) and safranin-O stainings were performed, and histopathological changes were observed using an optical microscope (FIG. 5).
In addition, the degrees of synovium proliferation, bone destruction, and cartilage damage were quantified, and the results are shown in Table 5 below.

In a further series the test system is RAW 264.7. In words: MTT assay cell viability. To be noted: for Cytotoxicity (MTT assay): concentrations of Table 1. The format is cell-based. (In general: Tetrazolium assays rely on reduction of a dye to a coloured formazan, in cell work by metabolically active cells.)
In the next series the test system is TNF-α. The experiment in a line: TNF-α expression level by ELISA in LPS-induced RAW 264.7 cells. The format is cell-based. The conditions noted are these: for TNF-α: LPS 10 ng/ml-induced RAW 264.7, ELISA. How it is done:
In addition, in order to confirm an effect of inhibiting the TNF-α expression of hydroflumethiazide in induced inflammatory cells, an experiment was performed as follows. RAW 264.7 cells were treated with DMSO at a concentration of 0.01% (v/v) as an untreated control group, and the cells were treated with LPS at a concentration of 10 ng/ml as a control group to induce an inflammatory response. […] Then, the expression level of TNF-α was measured and compared through the ELISA method in the groups treated with respective drugs.
(In general: ELISA stands for enzyme-linked immunosorbent assay.)

Series [4] relates to rheumatoid arthritis DBA-1J mouse model. In words: Histopathological quantification of ankle regions (H&E, safranin-O) in rheumatoid arthritis DBA-1J mouse model. The format is in vivo. To be noted: oral, FIG. 6.
Where [5] appears, read: Mus musculus, RAW264.7, TNF-α, LPS-induced RAW 264.7, 20 uM.

`CCN(CCO)CCCC(C)Nc1ccnc2cc(Cl)ccc12` (stereo not drawn) [HCQ, hydroxychloroquine]: the Arthritis index in series [1] (Day 0, G4, 80 mg/kg/day oral) was determined as 2.3 ± 1.4; in series [1] (Day 2, G4, 80 mg/kg/day oral), 4.7 ± 1.2; in series [1] (Day 4, G4, 80 mg/kg/day oral), 6 ± 1.3; in series [1] (Day 7, G4, 80 mg/kg/day oral), 7 ± 1.3; in series [1] (Day 9, G4, 80 mg/kg/day oral) it was 7.5 ± 1.2; in series [1] (Day 11, G4, 80 mg/kg/day oral), 7.8 ± 1.2. In addition, the Arthritis index in series [1] (Day 14, G4, 80 mg/kg/day oral) worked out at 8.5 ± 1.5. In addition, the “Size of lower extremity edema, Left Feet” value in series [2] (Day 0, G4, 80 mg/kg/day oral) is on record as 0.12 ± 0.02; in series [2] (Day 14, G4, 80 mg/kg/day oral), 0.16 ± 0.04. Also, the “Size of lower extremity edema, Right Feet” value in series [2] (Day 0, G4, 80 mg/kg/day oral) is 0.11 ± 0.02; in series [2] (Day 14, G4, 80 mg/kg/day oral), 0.15 ± 0.03. This compound showed a Bone destruction in series [3] (day 14, G4, 80 mg/kg/day oral) of 2.3 ± 0.5. The compound further had a Cartilage damage in series [3] (day 14, G4, 80 mg/kg/day oral) of 2 ± 0.6. In series [3] (day 14, G4, 80 mg/kg/day oral), this compound came in with a Synovium proliferation of 3 ± 0.0. The “Total (synovium proliferation, cartilage damage, bone destruction)” value (“Total” for short) in series [3] (day 14, G4, 80 mg/kg/day oral) was determined as 7.3 ± 1.0.

Broadly, the inhibition is the share of the control response that was lost under treatment. As for `NS(=O)(=O)c1cc2c(cc1C(F)(F)F)NCNS2(=O)=O` [Hydroflumethiazide, hydroflumethiazide], in the series with RAW 264.7, the “Cytotoxicity (MTT assay)” value is given as “cytotoxicity was not exhibited”. Besides, the Viability was determined as 106.35% in the series on RAW 264.7 (treatment concentration 0.1 uM), 101.82% in the series with RAW 264.7 (treatment concentration 1 uM), 105.73% in the series with RAW 264.7 (treatment concentration 10 uM) and 101.11% with RAW 264.7 (treatment concentration 20 uM). Further, the TNF-α is recorded as 1466.48 pg/mL with TNF-α (0.1 uM), 1289.62 pg/mL in the series with TNF-α (1 uM), 837.44 pg/mL in the series with TNF-α (10 uM) and 625.65 pg/mL in the series with TNF-α (20 uM). This compound also came in with an inhibition at 0.1 µM in the series on TNF-α (Mus musculus, RAW264.7, TNF-α, LPS-induced RAW 264.7, 0.1 uM) of 20.8%. The compound further came in with an inhibition at 1 µM in the series with TNF-α (Mus musculus, RAW264.7, TNF-α, LPS-induced RAW 264.7, 1 uM) of 30.4%. In addition, the inhibition at 10 µM in the series on TNF-α (Mus musculus, RAW264.7, TNF-α, LPS-induced RAW 264.7, 10 uM) amounted to 54.8%. This compound also registered an inhibition at 20 µM with TNF-α (setting [5]) of 66.2%. In the series on TNF-α (inflammatory response-induced RAW 264.7, at least 0.1 μM), the “Decrease of expression level of TNF-α” value is on record as “at least 20%”. The “Expression level of TNF-α compared to the group treated with PS1145” value in the series with TNF-α (inflammatory response-induced RAW 264.7, at least 1 μM) is “further decreased compared to the group treated with PS1145”. In addition, the “Decrease of expression of TNF-α” value in the series with TNF-α (inflammatory response-induced RAW 264.7, at least 10 μM) is recorded as “at least 50%”. For the same compound, in series [1] (20 mg/kg/day, day 14), the “Arthritis index compared to the MTX-administered group” value is recorded as “decreased at a similar level to the MTX-administered group”. The Arthritis index was found to be 2.3 ± 1 in series [1] (Day 0, G5, 5 mg/kg/day oral); 2.3 ± 1 in series [1] (Day 0, G6, 20 mg/kg/day oral); 4.2 ± 1.6 in series [1] (Day 2, G5, 5 mg/kg/day oral); 4 ± 1.7 in series [1] (Day 2, G6, 20 mg/kg/day oral); 5.8 ± 1.8 in series [1] (Day 4, G5, 5 mg/kg/day oral); 5 ± 1.4 in series [1] (Day 4, G6, 20 mg/kg/day oral). The Arthritis index in series [1] (Day 7, G5, 5 mg/kg/day oral) is on record as 6 ± 2.1; in series [1] (Day 7, G6, 20 mg/kg/day oral), 5.7 ± 1.5; in series [1] (Day 9, G5, 5 mg/kg/day oral), 6.7 ± 2.0; in series [1] (Day 9, G6, 20 mg/kg/day oral), 6.2 ± 1.7; in series [1] (Day 11, G5, 5 mg/kg/day oral) it was 7.2 ± 1.7; in series [1] (Day 11, G6, 20 mg/kg/day oral), 6.8 ± 1.6. Also, the Arthritis index in series [1] (Day 14, G5, 5 mg/kg/day oral) is 8 ± 2.5; in series [1] (Day 14, G6, 20 mg/kg/day oral), 7.3 ± 2.3. Further, the “Arthritis index compared to the HCQ-administered group” value in series [1] (from day 9 of the administration) is listed as “significantly decreased”. In addition, in series [2] (20 mg/kg/day, day 14), the “Size of the lower extremity edema compared to the MTX-administered group” value is given as “decreased at a similar level to the MTX-administered group”. The “Size of lower extremity edema, Left Feet” value was determined as 0.09 ± 0.01 in series [2] (Day 0, G5, 5 mg/kg/day oral); 0.11 ± 0.03 in series [2] (Day 0, G6, 20 mg/kg/day oral); 0.14 ± 0.02 in series [2] (Day 14, G5, 5 mg/kg/day oral); 0.15 ± 0.03 in series [2] (Day 14, G6, 20 mg/kg/day oral). Moreover, the “Size of lower extremity edema, Right Feet” value in series [2] (Day 0, G5, 5 mg/kg/day oral) came to 0.11 ± 0.03; in series [2] (Day 0, G6, 20 mg/kg/day oral) it was 0.1 ± 0.01; in series [2] (Day 14, G5, 5 mg/kg/day oral), 0.15 ± 0.04; in series [2] (Day 14, G6, 20 mg/kg/day oral), 0.15 ± 0.03. Further, the Bone destruction was 1.8 ± 1.0 in series [3] (day 14, G5, 5 mg/kg/day oral) and 2.5 ± 0.5 ^ in series [3] (day 14, G6, 20 mg/kg/day oral). The Cartilage damage in series [3] (day 14, G5, 5 mg/kg/day oral) is 2 ± 0.9; in series [3] (day 14, G6, 20 mg/kg/day oral), 1.7 ± 0.8. The Synovium proliferation in series [3] (day 14, G5, 5 mg/kg/day oral) was 3 ± 0.0; in series [3] (day 14, G6, 20 mg/kg/day oral), 2.2 ± 1.2. In addition, the “Total” value in series [3] (day 14, G5, 5 mg/kg/day oral) worked out at 6.8 ± 1.8; in series [3] (day 14, G6, 20 mg/kg/day oral) it was 6.3 ± 1.5. The “Anti-arthritic effect compared to HCQ” value in series [4] was “superior to HCQ”.

As to `CN(Cc1cnc2nc(N)nc(N)c2n1)c1ccc(C(=O)N[C@@H](CCC(=O)O)C(=O)O)cc1` [MTX, Methotrexate], the Arthritis index in series [1] (Day 0, G3, 2 mg/kg/2 day oral) came out at 2.3 ± 1.6; in series [1] (Day 2, G3, 2 mg/kg/2 day oral) it was 4.2 ± 1.0; in series [1] (Day 4, G3, 2 mg/kg/2 day oral) it was 5 ± 1.3; in series [1] (Day 7, G3, 2 mg/kg/2 day oral), 5.8 ± 1.3; in series [1] (Day 9, G3, 2 mg/kg/2 day oral), 6.3 ± 1.4; in series [1] (Day 11, G3, 2 mg/kg/2 day oral) it was 6.7 ± 1.5. In addition, in series [1] (Day 14, G3, 2 mg/kg/2 day oral), the Arthritis index worked out at 7 ± 1.3. Further, the “Size of lower extremity edema, Left Feet” value in series [2] (Day 0, G3, 2 mg/kg/2 day oral) stood at 0.11 ± 0.02; in series [2] (Day 14, G3, 2 mg/kg/2 day oral), 0.12 ± 0.02. Besides, the “Size of lower extremity edema, Right Feet” value in series [2] (Day 0, G3, 2 mg/kg/2 day oral) turned out to be 0.1 ± 0.02; in series [2] (Day 14, G3, 2 mg/kg/2 day oral), 0.15 ± 0.03. In addition, the Bone destruction in series [3] (day 14, G3, 2 mg/kg/2 day oral) is 1.5 ± 0.8. Further, the Cartilage damage in series [3] (day 14, G3, 2 mg/kg/2 day oral) came to 1.3 ± 0.5. In series [3] (day 14, G3, 2 mg/kg/2 day oral), this compound came in with a Synovium proliferation of 2.5 ± 0.5. Moreover, in series [3] (day 14, G3, 2 mg/kg/2 day oral), the “Total” value worked out at 5.3 ± 1.5.

Regarding `O=C(Nc1cc(Cl)cc2c1[nH]c1cnccc12)c1cccnc1` [PS1145, N-(6-chloro-9H-pyrido[3,4-b]indol-8-yl)-3-pyridinecarboxamide dihydrochloride], the “Cytotoxicity (MTT assay)” value with RAW 264.7 was “cytotoxicity was not exhibited”. This compound gave a Viability in the series on RAW 264.7 (treatment concentration 20 uM) of 99.16%. In the series with TNF-α (20 uM), this compound returned a TNF-α of 1402.08 pg/mL. In addition, in the series with TNF-α (setting [5]), the inhibition at 20 µM stood at 24.3%.
